Data taken from publication PMC10079235 (PLOS Neglected Tropical Diseases, 2023).
Structures can show the parent of a compound that is named as a salt. Where two headings read alike, the source gives them in different places.

Legend:
HCT-8/NC(PTX) cells = assay: MTS cytotoxicity (drug tolerance) assay; conditions: for TC50: human, 41 h
Experimental: (§1) Host cell drug tolerance to specified inhibitors was evaluated by 3-(4,5-dimethylthiazol-2-yl)-5-(3-carboxymethoxyphenyl)-2-(4-sulfophenyl)-2H-tetrazolium (MTS) assay. WT and transgenic host cells were seeded in 96-well plates (10,000 cells/well) and cultured for 24 h, followed by the addition of specified compounds at serially diluted concentrations and continued culture for 41 h. After 3 washes with serum-free medium, MTS solution (Saint-Bio, Shanghai, China) was added into the plates (20 μL/well) and incubated at 37°C for 2 h. Optical density at 490 nm (OD490) was measured using a Synergy LX multi-mode reader (BioTek, Winooski, VT). Drug tolerance was indicated by half-maximal cytotoxic concentrations (TC50 values) calculated by nonlinear regression using 4PL model. Selectivity index (SI) for each compound was determined by the ratio between TC50 and EC50 values (SI = TC50/EC50).
(§2) Surviving cells were allowed to recover in drug-free medium for 3–5 d to near confluence (round 1). The selection/recovery cycle were repeated once (round 2). […] The resulting cell lines after PTX or NTZ selection were designated as WT(PTX), NC(PTX) and MDR1(PTX), or WT(NTZ), NC(NTZ) and MDR1(NTZ), respectively (Tables 1 and S2).

HCT-8/WT(PTX) cells = assay: MTS cytotoxicity (drug tolerance) assay; conditions: for TC50: human, 41 h
Experimental: as §1, §2

HCT-8/MDR1(NTZ) cells = assay: MTS cytotoxicity (drug tolerance) assay; conditions: for TC50: MDR1(NTZ) cells; for TC50 / Fold increase of TC50 MDR1(NTZ) vs. NC: after selection by NTZ; for Fold increase of TC50 MDR1(NTZ) vs. MDR1: after selection by NTZ vs parent cell line
Experimental: as §1, §2

HCT-8/MDR1(PTX) cells = conditions: for TC50: MDR1(PTX) cells; for TC50 / Fold change of TC50 MDR1(PTX) vs. NC: after selection by PTX; for Fold change of TC50 MDR1(PTX) vs. MDR1: after selection by PTX vs parent cell line; for Fold change of TC50 MDR1(PTX)/NC(PTX): ratio of TC50; for Pct change of TC50 (vs NC): MDR1(PTX) vs NC cells
Experimental: as §1, §2

HCT-8/WT cells = assay: MTS cytotoxicity (drug tolerance) assay; conditions: for TC50: WT cells, no drug selection, MTS assay
Experimental: as §1

HCT-8/WT(NTZ) cells = assay: MTS cytotoxicity (drug tolerance) assay; conditions: for TC50: human, 41 h
Experimental: as §1
(§3) Surviving cells were allowed to recover in drug-free medium for 3–5 d to near confluence (round 1). The selection/recovery cycle were repeated once (round 2). […] Finally, all cells were cultured at the final selection concentrations of PTX or NTZ for ≥7 d, followed by culture in drug-free medium for 14 d. At this time point, cells were used for cytotoxicity and efficacy assays or cryopreserved in a liquid nitrogen tank. The resulting cell lines after PTX or NTZ selection were designated as WT(PTX), NC(PTX) and MDR1(PTX), or WT(NTZ), NC(NTZ) and MDR1(NTZ), respectively (Tables 1 and S2).

HCT-8/NC(NTZ) cells = assay: MTS cytotoxicity (drug tolerance) assay; conditions: for TC50: human, 41 h
Experimental: as §1, §3

HCT-8/MDR1 cells = assay: MTS cytotoxicity (drug tolerance) assay; conditions: for TC50: MDR1 cells, no drug selection, MTS assay; for Fold change of TC50 MDR1/NC: ratio of TC50, MDR1 vs NC cells
HCT-8/NC cells = conditions: human, 41 h
Cryptosporidium parvum = assay: Anti-cryptosporidial efficacy assay (44-h infection/qRT-PCR); conditions: for On-target (Eon) rate at EC50 / Off-target (Eoff) rate at EC50: MDR1(PTX) cell model; for On-target (Eon) rate at EC50: Eq 2; for Off-target (Eoff) rate at EC50: from Pct changes of EC50 and TC50 (Eq 1); for Action on parasite target (on-target) conclusion: MDR1-transgenic host cell model; for Eoff, proportion of off-parasite-target effect / Eon, proportion of on-parasite-target effect: MDR1(PTX) vs. NC model, Eq 3 and 4
[1] = Cryptosporidium parvum, MDR1, read-out: Antiparasitic efficacy (EC50), C. parvum cultured in MDR1(PTX) host cells
[2] = Cryptosporidium parvum, read-out: Antiparasitic efficacy (EC50), C. parvum cultured in NC host cells
[3] = Cryptosporidium parvum, read-out: Antiparasitic efficacy (EC50), C. parvum cultured in WT host cells
[4] = after selection by PTX vs parent cell line
[5] = after selection by NTZ vs parent cell line

## COc1cccc2c1C(=O)c1c(O)c3c(c(O)c1C2=O)C[C@@](O)(C(C)=O)C[C@@H]3O[C@H]1C[C@H](N)[C@H](O)[C@H](C)O1 [Daunorubicin, Daunorubicin HCl]
HCT-8/NC(PTX) cells
  Fold change of TC50 NC(PTX) vs. NC: 0.97
  TC50: 4.05 µM
HCT-8/WT(PTX) cells
  Fold change of TC50 WT(PTX) vs. WT: 0.99
  TC50: 3.88 µM
HCT-8/MDR1(NTZ) cells
  TC50: 3.93 µM
  Fold increase of TC50 MDR1(NTZ) vs. NC: 0.94
  Fold increase of TC50 MDR1(NTZ) vs. MDR1: 0.99
HCT-8/MDR1(PTX) cells
  TC50: 10.23 µM
  Fold change of TC50 MDR1(PTX) vs. NC: 2.46
  Fold change of TC50 MDR1(PTX) vs. MDR1: 2.59
  Fold change of TC50 MDR1(PTX)/NC(PTX): 2.53
HCT-8/WT cells
  TC50: 3.91 µM
HCT-8/WT(NTZ) cells
  Fold increase of TC50 WT(NTZ) vs. WT: 1.05
  TC50: 4.09 µM
HCT-8/NC(NTZ) cells
  Fold increase of TC50 NC(NTZ) vs. NC: 0.93
  TC50: 3.85 µM
HCT-8/MDR1 cells
  TC50: 3.95 µM
  Fold change of TC50 MDR1/NC: 0.95
HCT-8/NC cells
  TC50: 4.16 µM

## Ivermectin
Cryptosporidium parvum
  On-target (Eon) rate at EC50: 77.1%
  Off-target (Eoff) rate at EC50: 22.9%
  Action on parasite target (on-target) conclusion: partially on-target
Cryptosporidium parvum; listed as IVM
  On-target (Eon) rate at EC50: 77.1%
Cryptosporidium parvum; at EC10
  Eoff, proportion of off-parasite-target effect: 18.40%
  Eon, proportion of on-parasite-target effect: 81.60%
Cryptosporidium parvum; at EC10, listed as IVM
  Eon, proportion of on-parasite-target effect: 81.6%
Cryptosporidium parvum; at EC20
  Eoff, proportion of off-parasite-target effect: 20.10%
  Eon, proportion of on-parasite-target effect: 79.90%
Cryptosporidium parvum; at EC30
  Eoff, proportion of off-parasite-target effect: 21.20%
  Eon, proportion of on-parasite-target effect: 78.80%
Cryptosporidium parvum; at EC40
  Eoff, proportion of off-parasite-target effect: 22.10%
  Eon, proportion of on-parasite-target effect: 77.90%
Cryptosporidium parvum; at EC50
  Eoff, proportion of off-parasite-target effect: 22.8%
  Eon, proportion of on-parasite-target effect: 77.2%
Cryptosporidium parvum; at EC60
  Eoff, proportion of off-parasite-target effect: 23.60%
  Eon, proportion of on-parasite-target effect: 76.40%
Cryptosporidium parvum; at EC70
  Eoff, proportion of off-parasite-target effect: 24.40%
  Eon, proportion of on-parasite-target effect: 75.60%
Cryptosporidium parvum; at EC80
  Eoff, proportion of off-parasite-target effect: 25.30%
  Eon, proportion of on-parasite-target effect: 74.70%
Cryptosporidium parvum; at EC90
  Eoff, proportion of off-parasite-target effect: 26.60%
  Eon, proportion of on-parasite-target effect: 73.40%
Cryptosporidium parvum; at EC90, listed as IVM
  Eon, proportion of on-parasite-target effect: 73.4%
Cryptosporidium parvum; read-out: Antiparasitic efficacy (EC50), C. parvum cultured in MDR1(PTX) host cells
  EC50: 4.25 µM
Cryptosporidium parvum; read-out: Antiparasitic efficacy (EC50), C. parvum cultured in NC host cells
  EC50: 3.23 µM
Cryptosporidium parvum; read-out: Antiparasitic efficacy (EC50), C. parvum cultured in WT host cells
  EC50: 3.16 µM

## O=C1c2c(O)ccc(O)c2C(=O)c2c(NCCNCCO)ccc(NCCNCCO)c21 [Mitoxantrone, Mitoxantrone 2HCl]
Cryptosporidium parvum; [1]
  EC50: 4.16 µM
Cryptosporidium parvum; [2]
  EC50: 2.04 µM
Cryptosporidium parvum; [3]
  EC50: 2.07 µM
Cryptosporidium parvum
  On-target (Eon) rate at EC50: 39.8%
  Off-target (Eoff) rate at EC50: 60.2%
  Action on parasite target (on-target) conclusion: partially on-target
Cryptosporidium parvum; listed as MXT
  On-target (Eon) rate at EC50: 39.8%
Cryptosporidium parvum; TC50/EC50 in MDR1(PTX) cells
  Selectivity index (SI): 2.69
Cryptosporidium parvum; TC50/EC50 in NC cells
  Selectivity index (SI): 2.01
Cryptosporidium parvum; TC50/EC50 in WT cells
  Selectivity index (SI, k): 2.08
Cryptosporidium parvum; at EC10
  Eoff, proportion of off-parasite-target effect: 39.80%
  Eon, proportion of on-parasite-target effect: 60.20%
Cryptosporidium parvum; at EC20
  Eoff, proportion of off-parasite-target effect: 47.10%
  Eon, proportion of on-parasite-target effect: 52.90%
Cryptosporidium parvum; at EC30
  Eoff, proportion of off-parasite-target effect: 52.00%
  Eon, proportion of on-parasite-target effect: 48.00%
Cryptosporidium parvum; at EC40
  Eoff, proportion of off-parasite-target effect: 56.10%
  Eon, proportion of on-parasite-target effect: 43.90%
Cryptosporidium parvum; at EC50
  Eoff, proportion of off-parasite-target effect: 60.0%
  Eon, proportion of on-parasite-target effect: 40.0%
Cryptosporidium parvum; at EC60
  Eoff, proportion of off-parasite-target effect: 63.90%
  Eon, proportion of on-parasite-target effect: 36.10%
Cryptosporidium parvum; at EC70
  Eoff, proportion of off-parasite-target effect: 68.20%
  Eon, proportion of on-parasite-target effect: 31.80%
Cryptosporidium parvum; at EC80
  Eoff, proportion of off-parasite-target effect: 73.60%
  Eon, proportion of on-parasite-target effect: 26.40%
Cryptosporidium parvum; at EC90
  Eoff, proportion of off-parasite-target effect: 81.90%
  Eon, proportion of on-parasite-target effect: 18.10%
HCT-8/NC(PTX) cells; [4]
  Fold change of TC50 NC(PTX) vs. NC: 1.06
HCT-8/NC(PTX) cells
  TC50: 4.34 µM
HCT-8/WT(PTX) cells; [4]
  Fold change of TC50 WT(PTX) vs. WT: 0.98
HCT-8/WT(PTX) cells
  TC50: 4.23 µM
HCT-8/MDR1(NTZ) cells
  TC50: 6.74 µM
  Fold increase of TC50 MDR1(NTZ) vs. NC: 1.64
  Fold increase of TC50 MDR1(NTZ) vs. MDR1: 0.99
HCT-8/MDR1(PTX) cells
  TC50: 11.21 µM
  Pct change of TC50 (vs NC): 172.7%
  Fold change of TC50 MDR1(PTX) vs. NC: 2.73
  Fold change of TC50 MDR1(PTX) vs. MDR1: 1.65
  Fold change of TC50 MDR1(PTX)/NC(PTX): 2.58
HCT-8/MDR1(PTX) cells; listed as MXT
  Pct change of TC50 (vs NC): 172.7%
HCT-8/WT cells
  TC50: 4.31 µM
HCT-8/WT(NTZ) cells; [5]
  Fold increase of TC50 WT(NTZ) vs. WT: 0.96
HCT-8/WT(NTZ) cells
  TC50: 4.15 µM
HCT-8/NC(NTZ) cells; [5]
  Fold increase of TC50 NC(NTZ) vs. NC: 1.02
HCT-8/NC(NTZ) cells
  TC50: 4.19 µM
HCT-8/MDR1 cells
  TC50: 6.79 µM
  Fold change of TC50 MDR1/NC: 1.65
HCT-8/NC cells
  TC50: 4.11 µM

## CC(=O)O[C@H]1C(=O)[C@@]2(C)[C@H]([C@H](OC(=O)c3ccccc3)[C@]3(O)C[C@H](OC(=O)[C@H](O)[C@@H](NC(=O)c4ccccc4)c4ccccc4)C(C)=C1C3(C)C)[C@]1(OC(C)=O)CO[C@@H]1C[C@@H]2O [Paclitaxel]
Cryptosporidium parvum; [1]
  EC50: 0.29 µM
Cryptosporidium parvum; [2]
  EC50: 0.3 µM
Cryptosporidium parvum; [3]
  EC50: 0.31 µM
Cryptosporidium parvum
  Off-target (Eoff) rate at EC50: -1.2%
  Action on parasite target (on-target) conclusion: 100% on-target
Cryptosporidium parvum; at EC10
  Eoff, proportion of off-parasite-target effect: -4.20%
Cryptosporidium parvum; at EC20
  Eoff, proportion of off-parasite-target effect: -3.30%
Cryptosporidium parvum; at EC30
  Eoff, proportion of off-parasite-target effect: -2.60%
Cryptosporidium parvum; at EC40
  Eoff, proportion of off-parasite-target effect: -2.10%
Cryptosporidium parvum; at EC50
  Eoff, proportion of off-parasite-target effect: −1.5%
Cryptosporidium parvum; at EC60
  Eoff, proportion of off-parasite-target effect: -1.00%
Cryptosporidium parvum; at EC70
  Eoff, proportion of off-parasite-target effect: -0.40%
Cryptosporidium parvum; at EC80
  Eoff, proportion of off-parasite-target effect: 0.30%
Cryptosporidium parvum; at EC90
  Eoff, proportion of off-parasite-target effect: 1.50%
HCT-8/WT(PTX) cells
  TC50: 16.03 µM
HCT-8/MDR1(NTZ) cells
  TC50: 21.94 µM
HCT-8/MDR1(PTX) cells
  TC50: 45.86 µM
  Pct change of TC50 (vs NC): 270.7%
HCT-8/WT cells
  TC50: 12.75 µM
HCT-8/WT cells; percent inhibition of WT host cell growth at the EC50 concentration, calculated with Eq 5 from k and h
  Calculated cytotoxicity at EC50: 1.92%
HCT-8/WT(NTZ) cells
  TC50: 12.51 µM
HCT-8/NC(NTZ) cells
  TC50: 12.73 µM
HCT-8/MDR1 cells
  TC50: 20.22 µM
HCT-8/NC cells
  TC50: 12.37 µM
